ChEMBL document CHEMBL1201862, “PubChem BioAssay data set” (2004)
Values belong to the molecule of their own block, whether it stands above or below them. Active and inactive are the calls of the source.

What was measured:
SN12K1 = test: cells; format: functional; conditions: Homo sapiens
P388 = test: cells; format: functional; conditions: Mus musculus
P388/ADR = test: cells; format: functional; conditions: Mus musculus
Cytochrome P450 3A4 = Cytochrome P450 3A4 (Homo sapiens, UniProt P08684);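 note: CYP3A4 tested as one member of a cytochrome P450 panel screen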
Cytochrome P450 2C9 = Cytochrome P450 2C9 (Homo sapiens, UniProt P11712)
[1] = biological target: Dual specificity tyrosine-phosphorylation-regulated kinase 1A (Rattus norvegicus, UniProt Q63470); format: biochemical, Homo sapiens
Cytochrome P450 1A2 = biological target: T1, Cytochrome P450 1A2 (Homo sapiens, UniProt P05177);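 note: PubChem cytochrome P450 panel assay, CYP1A2 panel member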
T1 sequence (P05177 whole entry): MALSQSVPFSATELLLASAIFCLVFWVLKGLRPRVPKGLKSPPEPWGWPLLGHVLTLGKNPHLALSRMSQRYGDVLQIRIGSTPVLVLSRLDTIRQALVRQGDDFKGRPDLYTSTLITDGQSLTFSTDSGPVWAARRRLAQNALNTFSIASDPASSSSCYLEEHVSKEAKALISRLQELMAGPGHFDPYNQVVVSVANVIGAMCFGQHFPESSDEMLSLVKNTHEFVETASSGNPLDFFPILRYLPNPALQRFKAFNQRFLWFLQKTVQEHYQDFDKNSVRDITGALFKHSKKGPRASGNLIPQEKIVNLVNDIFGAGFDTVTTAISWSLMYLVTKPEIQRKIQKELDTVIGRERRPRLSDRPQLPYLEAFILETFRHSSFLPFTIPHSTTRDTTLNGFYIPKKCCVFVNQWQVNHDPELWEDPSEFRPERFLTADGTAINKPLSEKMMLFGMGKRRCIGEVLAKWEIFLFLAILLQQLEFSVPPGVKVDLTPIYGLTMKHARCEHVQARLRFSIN

Caspase-3 = biological target: T2, Caspase-3 (Homo sapiens, UniProt P42574); format: functional;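 note: Dose-response selectivity test against caspase-3 for candidate inhibitors of sentrin-specific proteases (SENPs)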
T2 sequence (P42574 whole entry): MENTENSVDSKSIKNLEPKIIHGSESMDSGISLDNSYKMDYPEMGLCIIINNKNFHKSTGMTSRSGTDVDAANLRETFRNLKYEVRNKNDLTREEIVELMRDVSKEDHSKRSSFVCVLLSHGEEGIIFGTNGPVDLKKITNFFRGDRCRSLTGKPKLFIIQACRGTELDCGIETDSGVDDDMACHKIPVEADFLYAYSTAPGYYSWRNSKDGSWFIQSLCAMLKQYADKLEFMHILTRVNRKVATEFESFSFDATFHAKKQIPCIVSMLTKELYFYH

[2] = biological target: T3, Sentrin-specific protease 7 (Homo sapiens, UniProt Q9BQF6); format: functional;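 note: Luminescence-based dose-response confirmation of ultra-high-throughput screening hits, measuring inhibition of SENP7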
T3 sequence (Q9BQF6 whole entry): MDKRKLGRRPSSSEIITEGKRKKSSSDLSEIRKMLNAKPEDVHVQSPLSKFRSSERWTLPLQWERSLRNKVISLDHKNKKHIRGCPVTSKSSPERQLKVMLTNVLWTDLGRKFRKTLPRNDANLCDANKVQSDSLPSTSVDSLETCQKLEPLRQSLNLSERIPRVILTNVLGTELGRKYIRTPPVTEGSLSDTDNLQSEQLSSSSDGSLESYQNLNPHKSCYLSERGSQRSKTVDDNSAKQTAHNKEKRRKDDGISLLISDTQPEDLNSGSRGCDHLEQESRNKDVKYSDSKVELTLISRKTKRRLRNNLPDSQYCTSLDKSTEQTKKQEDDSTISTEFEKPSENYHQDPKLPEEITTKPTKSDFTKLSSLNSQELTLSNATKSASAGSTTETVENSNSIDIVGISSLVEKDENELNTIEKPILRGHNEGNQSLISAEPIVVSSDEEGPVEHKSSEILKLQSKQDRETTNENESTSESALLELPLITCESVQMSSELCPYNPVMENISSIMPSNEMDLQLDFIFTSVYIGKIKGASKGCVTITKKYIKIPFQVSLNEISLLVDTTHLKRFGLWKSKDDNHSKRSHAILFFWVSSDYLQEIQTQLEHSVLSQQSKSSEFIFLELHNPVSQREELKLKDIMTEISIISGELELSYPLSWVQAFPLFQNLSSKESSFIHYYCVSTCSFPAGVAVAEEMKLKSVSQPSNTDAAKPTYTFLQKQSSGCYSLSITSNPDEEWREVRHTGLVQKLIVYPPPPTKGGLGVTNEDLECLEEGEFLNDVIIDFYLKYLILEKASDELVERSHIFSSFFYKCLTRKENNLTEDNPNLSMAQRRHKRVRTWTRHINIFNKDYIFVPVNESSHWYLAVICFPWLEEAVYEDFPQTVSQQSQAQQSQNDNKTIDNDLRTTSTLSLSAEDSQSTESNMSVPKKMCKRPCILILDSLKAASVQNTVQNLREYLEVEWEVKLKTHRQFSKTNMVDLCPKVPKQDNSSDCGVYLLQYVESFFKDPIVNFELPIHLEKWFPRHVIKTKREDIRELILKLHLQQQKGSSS

[3] = biological target: T4, Sentrin-specific protease 6 (Homo sapiens, UniProt Q9GZR1); format: functional;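 note: Luminescence-based dose-response confirmatory assay of SENP6 inhibition, following up an ultra-high-throughput screen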
T4 sequence (Q9GZR1 whole entry): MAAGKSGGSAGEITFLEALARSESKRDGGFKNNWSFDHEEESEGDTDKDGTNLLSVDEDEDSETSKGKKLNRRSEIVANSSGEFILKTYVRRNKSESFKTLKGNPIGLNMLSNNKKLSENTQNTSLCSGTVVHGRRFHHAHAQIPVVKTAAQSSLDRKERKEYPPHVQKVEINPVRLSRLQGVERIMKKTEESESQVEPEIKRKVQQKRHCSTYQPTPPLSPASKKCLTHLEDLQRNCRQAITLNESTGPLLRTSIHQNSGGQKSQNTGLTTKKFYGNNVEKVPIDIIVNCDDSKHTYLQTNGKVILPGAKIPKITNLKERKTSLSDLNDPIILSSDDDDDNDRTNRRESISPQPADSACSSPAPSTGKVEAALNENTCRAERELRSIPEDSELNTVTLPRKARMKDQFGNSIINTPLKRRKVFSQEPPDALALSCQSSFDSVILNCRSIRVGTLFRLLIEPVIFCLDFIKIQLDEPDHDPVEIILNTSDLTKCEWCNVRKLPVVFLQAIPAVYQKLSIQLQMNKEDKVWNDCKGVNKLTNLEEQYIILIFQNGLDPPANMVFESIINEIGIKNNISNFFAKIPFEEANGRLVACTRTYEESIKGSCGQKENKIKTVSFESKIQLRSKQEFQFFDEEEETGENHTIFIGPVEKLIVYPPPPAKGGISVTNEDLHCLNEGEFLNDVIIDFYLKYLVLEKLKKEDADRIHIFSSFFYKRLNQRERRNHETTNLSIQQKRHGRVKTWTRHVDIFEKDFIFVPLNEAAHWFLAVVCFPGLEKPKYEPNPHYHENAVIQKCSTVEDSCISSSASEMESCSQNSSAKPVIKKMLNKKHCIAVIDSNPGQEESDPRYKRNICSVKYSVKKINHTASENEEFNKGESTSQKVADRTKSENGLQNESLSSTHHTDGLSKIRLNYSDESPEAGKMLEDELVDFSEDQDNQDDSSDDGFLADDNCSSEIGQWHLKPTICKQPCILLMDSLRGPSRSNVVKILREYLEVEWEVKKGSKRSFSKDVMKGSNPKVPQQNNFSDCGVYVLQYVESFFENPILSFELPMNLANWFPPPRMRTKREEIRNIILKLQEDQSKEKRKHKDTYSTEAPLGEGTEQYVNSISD

[4] = biological target: T5, Sentrin-specific protease 8 (Homo sapiens, UniProt Q96LD8); format: functional;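 note: luminescence read-out of SENP8 inhibition, dose-response confirmation following an ultra-high-throughput screen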
T5 sequence (Q96LD8 whole entry): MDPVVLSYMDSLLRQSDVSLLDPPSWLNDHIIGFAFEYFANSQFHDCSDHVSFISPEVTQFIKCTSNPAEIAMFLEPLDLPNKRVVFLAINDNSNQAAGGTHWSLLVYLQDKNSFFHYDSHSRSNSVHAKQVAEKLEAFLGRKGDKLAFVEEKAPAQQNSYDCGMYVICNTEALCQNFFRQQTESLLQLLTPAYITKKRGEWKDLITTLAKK

Cysteine protease ATG4B = biological target: T6, Cysteine protease ATG4B (Homo sapiens, UniProt Q9Y4P1); format: functional;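 note: Fluorescence-based dose-response confirmation assay measuring inhibition of ATG4B activity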
T6 sequence (Q9Y4P1 whole entry): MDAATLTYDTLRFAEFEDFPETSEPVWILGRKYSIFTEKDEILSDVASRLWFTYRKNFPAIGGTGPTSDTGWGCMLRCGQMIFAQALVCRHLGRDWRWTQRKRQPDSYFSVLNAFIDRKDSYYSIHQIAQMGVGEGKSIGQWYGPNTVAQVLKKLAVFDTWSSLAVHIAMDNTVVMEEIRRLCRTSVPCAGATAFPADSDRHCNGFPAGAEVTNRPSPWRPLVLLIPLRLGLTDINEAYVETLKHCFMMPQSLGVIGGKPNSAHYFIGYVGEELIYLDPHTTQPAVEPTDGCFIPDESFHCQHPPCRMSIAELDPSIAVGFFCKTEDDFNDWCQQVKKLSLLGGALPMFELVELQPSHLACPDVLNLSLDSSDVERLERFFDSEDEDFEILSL

Phospholipase A2 = Phospholipase A2 (Homo sapiens, UniProt P04054); format: functional;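 note: confirmatory dose-response counterscreen on phospholipase A2, testing hits that came from an ultra-high-throughput screen for ATG4B inhibitors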
[5] = biological target: T7, Calpain-2 catalytic subunit (Sus scrofa, UniProt P43367); test: pig calpain II inhibitor potency, dose response, biochemical, fluorogenic peptide substrate (AID 1420); format: functional
T7 sequence (P43367 whole entry): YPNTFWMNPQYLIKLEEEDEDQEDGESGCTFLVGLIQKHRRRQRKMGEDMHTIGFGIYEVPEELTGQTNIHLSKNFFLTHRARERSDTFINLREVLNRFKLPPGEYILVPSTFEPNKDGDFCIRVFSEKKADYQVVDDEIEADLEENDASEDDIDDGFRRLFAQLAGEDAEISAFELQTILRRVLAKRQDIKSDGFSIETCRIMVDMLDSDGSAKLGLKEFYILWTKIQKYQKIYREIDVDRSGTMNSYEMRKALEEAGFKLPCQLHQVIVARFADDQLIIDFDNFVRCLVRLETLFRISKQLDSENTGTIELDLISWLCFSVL

[6] = Luminescence Cell-Based Dose Retest to Confirm Inhibitors of Cancer Stem Cells. [Related pubchem assays (depositor defined):AID2717, AID2721]; format: functional; conditions: Homo sapiens
Coagulation factor XII = biological target: T8, Coagulation factor XII (Homo sapiens, UniProt P00748); format: functional;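 note: activated factor XIIa alpha cleaving a fluorogenic AMC peptide substrate; inhibitor potency from loss of enzyme activity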
T8 sequence (P00748 whole entry): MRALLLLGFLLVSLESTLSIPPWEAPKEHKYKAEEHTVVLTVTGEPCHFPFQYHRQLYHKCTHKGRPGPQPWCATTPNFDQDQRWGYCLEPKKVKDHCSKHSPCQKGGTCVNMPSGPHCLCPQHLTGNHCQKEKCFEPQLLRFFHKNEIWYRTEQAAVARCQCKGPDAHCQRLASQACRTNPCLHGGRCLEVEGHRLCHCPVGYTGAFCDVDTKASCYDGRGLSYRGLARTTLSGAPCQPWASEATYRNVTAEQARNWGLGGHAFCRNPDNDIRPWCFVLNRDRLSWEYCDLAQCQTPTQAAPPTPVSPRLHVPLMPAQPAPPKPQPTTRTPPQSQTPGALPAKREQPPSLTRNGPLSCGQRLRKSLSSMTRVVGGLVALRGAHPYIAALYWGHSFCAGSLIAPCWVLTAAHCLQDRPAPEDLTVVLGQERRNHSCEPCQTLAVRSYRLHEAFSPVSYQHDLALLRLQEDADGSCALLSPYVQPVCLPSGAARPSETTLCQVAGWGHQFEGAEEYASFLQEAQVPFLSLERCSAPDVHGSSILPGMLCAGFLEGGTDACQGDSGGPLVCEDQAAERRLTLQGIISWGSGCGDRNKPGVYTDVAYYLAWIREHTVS

[7] = biological target: Heat shock protein HSP 90-alpha (Homo sapiens, UniProt P07900); format: functional, organism-based
Tumor necrosis factor = Tumor necrosis factor (Homo sapiens, UniProt P01375); test: TNFa-triggered NF-kB activation inhibitors, SAR follow-up, cell-based, revised (AID 2337); format: functional
HEK293 = test: cells; conditions: Homo sapiens;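 note: cells exposed to compound for 14 hours overnight before viability readout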

Sequence of Cytochrome P450 3A4 (P08684 whole entry): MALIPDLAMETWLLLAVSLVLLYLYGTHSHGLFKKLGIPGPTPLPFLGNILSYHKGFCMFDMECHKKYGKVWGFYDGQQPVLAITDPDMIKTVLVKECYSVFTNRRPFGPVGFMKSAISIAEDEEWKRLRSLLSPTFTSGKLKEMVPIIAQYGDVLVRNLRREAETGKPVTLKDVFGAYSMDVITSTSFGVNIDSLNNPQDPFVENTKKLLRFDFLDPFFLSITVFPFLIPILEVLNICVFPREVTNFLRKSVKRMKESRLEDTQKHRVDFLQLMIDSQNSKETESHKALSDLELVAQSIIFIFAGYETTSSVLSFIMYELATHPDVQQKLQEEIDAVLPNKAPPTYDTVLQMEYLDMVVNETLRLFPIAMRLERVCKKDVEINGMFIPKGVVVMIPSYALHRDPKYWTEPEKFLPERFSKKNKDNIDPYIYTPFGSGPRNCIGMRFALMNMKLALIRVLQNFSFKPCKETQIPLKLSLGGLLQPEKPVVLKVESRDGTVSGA
Sequence of Tumor necrosis factor (P01375 whole entry): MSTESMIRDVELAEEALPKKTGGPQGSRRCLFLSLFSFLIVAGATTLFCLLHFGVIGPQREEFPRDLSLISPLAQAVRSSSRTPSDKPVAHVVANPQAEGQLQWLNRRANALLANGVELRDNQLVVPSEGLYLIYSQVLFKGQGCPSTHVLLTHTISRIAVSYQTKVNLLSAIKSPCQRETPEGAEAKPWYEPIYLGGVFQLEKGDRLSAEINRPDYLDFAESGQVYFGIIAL
Sequence of Phospholipase A2 (P04054 whole entry): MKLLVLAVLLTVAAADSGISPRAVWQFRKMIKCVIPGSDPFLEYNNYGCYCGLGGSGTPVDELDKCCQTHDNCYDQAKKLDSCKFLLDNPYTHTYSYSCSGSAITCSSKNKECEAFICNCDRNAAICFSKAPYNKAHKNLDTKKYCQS
Sequence of Cytochrome P450 2C9 (P11712 whole entry): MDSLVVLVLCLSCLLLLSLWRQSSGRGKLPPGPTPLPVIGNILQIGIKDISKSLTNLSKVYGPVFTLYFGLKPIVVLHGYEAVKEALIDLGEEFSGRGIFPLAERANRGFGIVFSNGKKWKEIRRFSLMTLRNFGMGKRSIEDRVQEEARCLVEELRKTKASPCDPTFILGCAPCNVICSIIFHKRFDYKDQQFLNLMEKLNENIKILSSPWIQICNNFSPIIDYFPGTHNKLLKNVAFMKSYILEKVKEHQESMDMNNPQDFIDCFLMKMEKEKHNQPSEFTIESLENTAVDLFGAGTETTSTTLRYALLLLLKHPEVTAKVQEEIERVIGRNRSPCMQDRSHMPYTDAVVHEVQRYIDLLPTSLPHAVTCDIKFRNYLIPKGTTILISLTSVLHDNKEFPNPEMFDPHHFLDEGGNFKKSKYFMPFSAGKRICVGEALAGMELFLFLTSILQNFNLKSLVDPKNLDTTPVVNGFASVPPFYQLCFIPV

SMILES: O=S(=O)(O)c1cc(/N=[N+](\[O-])c2ccc(/N=N/c3ccccc3)cc2S(=O)(=O)O)ccc1/C=C/c1ccc(/N=[N+](\[O-])c2ccc(/N=N/c3ccccc3)cc2S(=O)(=O)O)cc1S(=O)(=O)O
GI50 (SN12K1): > 31.6 µM (inactive)
GI50 (P388): > 100 µM (inactive)

SMILES: COc1cc2c(cc1OC)C(Cl)C(c1ccc(Br)cc1)=C2Cl (centres undefined)
GI50 (P388/ADR): 3.78 µM (inactive)
GI50 (SN12K1): 15.6 µM (inactive)
GI50 (P388): 3.94 µM (inactive)

AC50 (Cytochrome P450 3A4): inconclusive
SMILES: Cc1cccc(NC(=O)C2(c3ccccc3)CC2(Cl)Cl)c1 (centres undefined)

SMILES: CCN(CC)CCNC(=O)C1COc2ccc(-c3cc(=O)c4ccccc4o3)cc2O1 (centres undefined)
GI50 (P388/ADR): 12.3 µM (inactive)
GI50 (SN12K1): 16.8 µM (inactive)
GI50 (P388): 0.29 µM (active)

SMILES: COc1ccc2c(c1)CN([C@H](C)[C@@H]1CC[C@@H]3[C@H]4CC[C@H]5C[C@@H](O)CC[C@@]5(C)[C@H]4CC[C@]31C)CO2
AC50 (Cytochrome P450 2C9): 7.94 µM (inconclusive)
AC50 (Cytochrome P450 3A4): inconclusive

AC50 [1]: 3.68 µM (active)
SMILES: COc1ccc(/C=C/C(=O)Nc2cccc(C(C)=O)c2)cc1

AC50 (Cytochrome P450 1A2): 10 µM (inconclusive)
AC50 (Cytochrome P450 3A4): inconclusive
SMILES: COc1ccc(-c2nc3cnc(N4CCN(C)CC4)nc3n(Cc3ccc(F)cc3)c2=O)cc1

IC50 (Caspase-3): 17.7 µM (active)
IC50 [2]: 5.03 µM (active)
IC50 [3]: 14.6 µM (active)
IC50 (Cysteine protease ATG4B): 14.5 µM (active)
IC50 (Phospholipase A2): 7.21 µM (active)
SMILES: Cc1ccc(-c2nnc(SCc3ccccc3F)o2)cc1
IC50 [4]: 21.4 µM (active)

SMILES: CCOC(=O)/C(O)=C1\C(=O)N(C)C(=O)C1c1cccc(OC)c1 (centres undefined)
GI50 (P388/ADR): > 100 µM (inactive)
GI50 (SN12K1): > 100 µM (inactive)
GI50 (P388): > 100 µM (inactive)

SMILES: Cc1c(C(=O)N(Cc2ccccc2)Cc2cccs2)cnn1-c1ccc(Cl)cc1
IC50 [5]: 4.66 µM (not active)
AC50 [6]: 1.77 µM (active)
IC50 (Coagulation factor XII): > 50 µM (inactive)
AC50 [7]: 3.44 µM (active)

SMILES: CN(C)c1ccc(NC(=O)c2ccc(CN3CCc4ccccc43)cc2)cc1
IC50 (Tumor necrosis factor): 5.37 µM (active)
IC50 (HEK293): > 20 µM (inactive)
